Reference: patent US20070203225A1, “METHOD OF INCREASING ENDOGENOUS ADIPONECTIN PRODUCTION AND LEPTIN PRODUCTION” (priority 2001, published 2007)
“Also recorded” adds a separate entry of the source. Read-outs that look alike come from different tables or passages of the source.

Key:
[1] = system: isolated rat adipocytes; conditions: cited from earlier work; for effect on leptin secretion (in words): citrate
[2] = system: leptin promoter; assay: Leptin promoter luciferase construct transfected into 3T3-L1 cells; assay type: cell-based
[3] = system: isolated rat adipocytes; assay: Leptin secretion/production by isolated cultured rat adipocytes (RIA); assay type: cell-based; conditions: for Leptin (ng) Produced over 96 h / [Leptin] (ng/ml) at 96 h: isolated rat adipocytes, 96 h culture; for increase of leptin production/secretion: PDH kinase inhibitors vs control: DTNB 100 μM, NEM 0.1 μM, DCA 2 mM; for increase of leptin secretion/production: Malate 2-5 mM, fumarate 5 mM, alone or in combination, low insulin and glucose, over control
Experimental: (§1) Cell isolation/preparation: Adipocytes are prepared from epididymal fat pads from male Sprague-Dawley rats weighing 300-600 g. Epididymal fat depots are resected from halothane anesthetized rats under aseptic conditions and adipocytes are isolated by collagenase digestion by the Rodbell method (Rodbell M. Metabolism of isolated fat cells. I. Effects of hormones on glucose metabolism and lipolysis. J Biol Chem. 1964; 239: 375-380), with minor modifications as previously described (Mueller W M, Gregoire F M, Stanhope K L, Mobbs C V, Mizuno T M, Warden C H, Stem J S, Havel P J. Evidence that glucose metabolism regulates leptin secretion from isolated adipocytes. Endocrinology 139: 551-558, 1998; Mueller W M, Stanhope K L, Gregoire F, Evans J L, Havel P J. Effects of metformin and vanadium on leptin secretion from cultured rat adipocytes. Obesity Res. 8: 530-539, 2000; Medina E A, Stanhope K L, Mizuno T M, Mobbs C V, Gregoire F, Hubbard N E, Erickson K L, Havel P J. Effects of tumor necrosis factor alpha on leptin secretion and gene expression: relationship to changes of glucose metabolism in isolated rat adipocytes. Int J Obes Relat Metab Disord. 23: 896-903, 1999.). The isolated adipocytes are then incubated for 30 minutes at 37 C before being plated and cultured on Matrigel-coated plates.
(§2) Adipocyte Culture: Adipocytes are maintained in culture anchored to a basement membrane matrix (Matrigel, Becton Dickinson, Franklin Lakes, N.J.) or collagen from Cohesion Technologies, (Palo Alto, Calif.). Although all in vitro systems have inherent advantages and disadvantages, advantages of this system compared with cultures containing free-floating adipocytes are that the matrix simulates their normal basement membrane attachment and that the cells are maintained in close proximity to each other, allowing direct cell to cell contact. Together the cell contact and basement membrane attachment help to maintain differentiation, since adipocytes have a strong tendency to dedifferentiate in long-term (>24 h) culture. In addition, the matrix and the small amount of serum in the media both contain growth factors, which are also likely to help in maintaining cell differentiation. Furthermore, the adipocytes in this system are not exposed to toxic levels of oxygen at the interface of the media and the incubator atmosphere, as opposed to free-floating adipocytes which aggregate at the surface of the media. An advantage of the system over those containing minced adipose tissue is that all of the cells in the culture are equally exposed to the nutrients and the oxygen dissolved in the media. Thus, although clearly different from the in vivo situation, this system provides a more physiological environment than most systems for maintaining adipocytes in long-term culture.
(§3) In culturing each suspension, Matrigel is first thawed on ice to a liquid and uniformly applied to the surface of culture dishes (300 μl Matrigel/35 mm well). After the incubation period, 150 μl of the adipocyte suspension (2:1 ratio of packed cells to media) are plated on the Matrigel or collagen matrix. Adipocytes from each suspension are thoroughly mixed with a transfer pipette before plating to insure that a similar number adipocytes with a similar size distribution are added to the control and experimental wells for each suspension. The warmth of the added cells and buffer causes the Matrigel to gel around the adipocytes, or the neutralization of the acidic pH of the collagen solution to 7.0 solidifies the collagen, and both of these techniques effectively anchor the adipocytes to the culture dish. After a 30 minute incubation at 37° C., 2 ml of warm culture medium is added. The cells are maintained in an incubator at 37° C. for 96 hours with 6% CO2. Aliquots of adipocytes from each animal are divided into wells, with the different concentrations of insulin or other agents to be tested. In each plate an appropriate control well contains adipocytes from the same animal. […]

[4] = system: isolated rat adipocytes; assay: Glucose utilization (uptake) by isolated cultured rat adipocytes; assay type: cell-based; conditions: for Glucose Uptake (μg) over 96 h: isolated rat adipocytes, 96 h culture
Experimental: as §1, §2, §3

[5] = system: cultured rat adipocytes; assay: Adiponectin secretion by isolated cultured rat adipocytes over 96 h; assay type: cell-based; conditions: DTNB 100 μM, DCA 2 mM; 96 h culture, n=6
Experimental: Several studies have reported that thiazolidenediones (TZDs), agonists of PPARγ, increase adiponectin expression and circulating levels in animals (Maeda, 2001; Yamauchi, 2001a; Ye, 2003). TZD (10 μM Troglitazone) stimulated of adiponectin secretion from cultured rat adipocytes from 3 different depots (n=6). Mesenteric fat produced the largest amount of adiponectin over 96 hours in culture. (FIG. 5A). Adiponectin secretion from both the control- and TZD-treated adipocytes was well correlated with the glucose utilization (control, r=0.79; p<0.001); (TZD-treated, r=0.84, p=<0.0001, FIG. 5B) showing that, similar to leptin production, glucose metabolism also is involved in the regulation of adiponectin production by adipocytes.
Insulin increased adiponectin production from 3 different fat depots, however as in the experiments with troglitazone, the mesenteric depot produced the most adiponectin (FIG. 6B). Like leptin, both basal and insulin-stimulated adiponectin secretion was highly correlated to glucose utilization (r=0.91, p<0.0001) (FIG. 6C), and inversely related to the proportion of glucose metabolized to lactate (r=−0.81, p<0.0001) (FIG. 6D).
Also paralleling the regulation of leptin, adiponectin secretion by isolated cultured adipocytes was increased during 96 h culture by inhibitors of PDH-K. DTNB (100 μM) increased adiponectin secretion by 40% (p<0.03, n=6, FIG. 7A). DCA (2 mM) increased adiponectin secretion by 23% (p<0.025, n=6, FIG. 7B). The increase in adiponectin induced by DTNB was highly correlated with glucose utilization (r=0.95, p<0.004). Furthermore in adipocytes transfected with antisense directed at PDH-K, adiponectin secretion was stimulated by 24.3±8.4%, p<0.05, n=7, FIG. 7C).
as §1
Adipocyte Culture: Adipocytes are maintained in culture anchored to a basement membrane matrix (Matrigel, Becton Dickinson, Franklin Lakes, N.J.) or collagen from Cohesion Technologies, (Palo Alto, Calif.). […]

[6] = system: isolated rat adipocytes; assay: Lactate production and proportion of glucose anaerobically metabolized to lactate in isolated cultured rat adipocytes; assay type: cell-based; conditions: for Glucose to Lactate (%) / Lactate Produced (μg) over 96 h: isolated rat adipocytes, 96 h culture
Experimental: as §1, §2, §3

[7] = system: isolated rat adipocytes; assay: Incorporation of glucose carbon into triglyceride in cultured adipocytes; assay type: cell-based
Experimental: Incorporation of Glucose Carbon into Triglyceride: To measure glucose incorporation into triglyceride, cultures are exposed to media containing 0.01 uCi/ml of ^14C-glucose. After 96 hr, media and extracellular lipid is removed from the well and methanol added. Then scrape the collagen-cell matrix from the well and transfer into a 50 ml glass tube. Rinse the well and scrape again in methanol to assure complete transfer of cells. Total triglycerides will be extracted using the Folch method (Folch, 1957). An aliquot of the lipid extract will be placed into vials containing scintillation fluid then radioactivity will be measured.
The first measurement is used to calculate the amount of glucose incorporated into triglycerides. Another aliquot of the lipid extract is placed into pre-weighed aluminum pans to determine the total amount of triglyceride per well. The remaining lipid is saponified and acidified to separate the glycerol and fatty acids. An aliquot of the lipid extract is placed into vials containing scintillation fluid and counted. This second count represents the ^14C-glucose incorporation into fatty acids. By subtraction, the amount that was incorporated into triglyceride though glycerol is also determined. Glucose incorporation into triglyceride and into the fatty acid portion of the triglyceride are calculated by multiplying disintegration per min by total ug of glucose/well over the total DPM/well.

[8] = system: isolated rat adipocytes; assay: Glucose oxidation: incorporation of 14C-glucose into CO2 by isolated rat adipocytes; assay type: cell-based
Experimental: Substrate Oxidation: Oxidation is measured using a modification of the method of Rodbell (Rodbell, 1964) and a modification of the cell culture system described by Bottcher and Furst (Bottcher, 1996). Briefly, adipocytes are isolated, counted and sized as previously described. Adipocytes are plated as described except they are placed in a sterile 20 ml scintillation vial instead of a well. Two ml of treatment media containing [U-^14C]-substrate (0.3 uCi/ml; glucose, fatty acids, malate, fumarate, pyruvate) is added to the vials. The vials are filled with 95% O2-5% CO2 gas and capped with rubber stoppers fitted with a hanging center well. Each well contains a 2×8 cm strip of Whatman No. 1 paper. Vials are maintained at 37° C. for 48 hr. After 48 hr, a sample of media is removed from each vial using a 4 inch, 23 gauge needle. Using another syringe and 23 gauge needle, 200 ul of sodium benzethonium is placed onto the paper strip and hanging well to capture CO2. Concentrated sulfuric acid is added to the vial in order to lyse cells and liberate all CO2 from the collagen matrix. After 24 hours, the hanging well and paper are transferred to another vial containing scintillation fluid and counted. The data are expressed as % DPM recovered as CO2 of the total DPM remaining in the media at 48 hours and as micromoles of substrate oxidized over time.

[9] = system: isolated, cultured adipocytes; assay: Fatty acid oxidation: incorporation of 14C-labeled oleate into CO2 by cultured adipocytes; assay type: cell-based, rat
Experimental: Experiments were also carried out to examine fatty acid oxidation by measuring the incorporation of ^14C-labeled oleate into CO2. […] Therefore, to further examine the potential role of fatty acid oxidation adipocytes were incubated with L-carnitine, a cofactor of the rate-limiting step for fatty acid transport into the mitochondria via carnitine-palmitoyl-tranferase (CPT).
Substrate Oxidation: Oxidation is measured using a modification of the method of Rodbell (Rodbell, 1964) and a modification of the cell culture system described by Bottcher and Furst (Bottcher, 1996). Briefly, adipocytes are isolated, counted and sized as previously described. Adipocytes are plated as described except they are placed in a sterile 20 ml scintillation vial instead of a well. Two ml of treatment media containing [U-^14C]-substrate (0.3 uCi/ml; glucose, fatty acids, malate, fumarate, pyruvate) is added to the vials. The vials are filled with 95% O2-5% CO2 gas and capped with rubber stoppers fitted with a hanging center well. Each well contains a 2×8 cm strip of Whatman No. 1 paper. Vials are maintained at 37° C. for 48 hr. […] After 24 hours, the hanging well and paper are transferred to another vial containing scintillation fluid and counted. The data are expressed as % DPM recovered as CO2 of the total DPM remaining in the media at 48 hours and as micromoles of substrate oxidized over time.

[10] = DCA 2.0 mM + insulin 0.48 nM vs control (insulin only)
[11] = DTNB 100 μM, NEM 0.1 μM, DCA 2 mM
[12] = NEM 0.1 μM + insulin 0.48 nM vs control (insulin only)

O=C(O)CC(O)(CC(=O)O)C(=O)O [Citrate]
effect on leptin secretion (in words) ([1]; low glucose and insulin concentration): stimulates
effect on leptin secretion (in words) ([1]; presence of high insulin and glucose): does not affect

[F-].[Na+] [sodium fluoride]
effect on leptin expression and secretion (in words) ([1]; glycolysis suppressed with sodium fluoride): reduced

O=CC[C@@H](O)[C@H](O)[C@H](O)CO [2-DG, 2-deoxy-D-glucose]
effect on activity of control plasmid (in words) ([2]; insulin 10 nM, 2-DG 10 mg/dl): unaffected
effect on leptin promoter activity (in words) ([2]; insulin 0.1 to 10 nM, 2-DG 10 mg/dl on basal and insulin-stimulated (10 nM) activity): markedly inhibited; also recorded: completely blocked
effect on leptin secretion and ob gene expression (in words) ([3]; 2-DG treatment): suppressed

O=C(O)C(Cl)Cl [DCA, Dichloroacetate]
Change in Parameter: Glucose Uptake (μg) over 96 h [4, 10]: -46 ± 57 µg
Glucose Uptake (μg) over 96 h ([4]; DCA 2.0 mM + insulin 0.48 nM): 1082 ± 117 µg
% ΔLeptin Produced over 96 h [3, 10]: +17.6 ± 4.7%
% Δ[Leptin] (ng/ml) at 96 h [3, 10]: +17.9 ± 7.9%
Change in Parameter: Leptin (ng) Produced over 96 h [3, 10]: +12.9 ± 3.6 ng
Change in Parameter: [Leptin] (ng/ml) at 96 h [3, 10]: +3.6 ± 1.0 ng/ml
Leptin (ng) Produced over 96 h ([3]; DCA 2.0 mM + insulin 0.48 nM): 88.3 ± 7.5 ng
[Leptin] (ng/ml) at 96 h ([3]; DCA 2.0 mM + insulin 0.48 nM): 27.0 ± 2.6 ng/mL
increase of leptin production/secretion ([3]; cultured adipocytes): 20-25%
increase of adiponectin secretion [5]: 23%
Change in Parameter: Glucose to Lactate (%) [6, 10]: −16.1 ± 1.3%
Change in Parameter: Lactate Produced (μg) over 96 h [6, 10]: -181 ± 10 µg
Glucose to Lactate (%) ([6]; DCA 2.0 mM + insulin 0.48 nM): 7.9 ± 0.9%
Lactate Produced (μg) over 96 h ([6]; DCA 2.0 mM + insulin 0.48 nM): 81 ± 4 µg

CCN1C(=O)C=CC1=O [NEM, N-ethylmaleimide]
effect on total / insulin-mediated glucose utilization (in words) [4, 11]: increased
Change in Parameter: Glucose Uptake (μg) over 96 h [4, 12]: +348 ± 114 μg
Glucose Uptake (μg) over 96 h ([4]; NEM 0.1 μM + insulin 0.48 nM): 1399 ± 132 µg
effect on proportion of glucose incorporated into TG (in words) [7, 11]: without affecting
% ΔLeptin Produced over 96 h [3, 12]: +26.6 ± 6.2%
% Δ[Leptin] (ng/ml) at 96 h [3, 12]: +25.3 ± 6.3%
Change in Parameter: Leptin (ng) Produced over 96 h [3, 12]: +14.2 ± 4.2 ng
Change in Parameter: [Leptin] (ng/ml) at 96 h [3, 12]: +4.0 ± 1.0 ng/ml
Leptin (ng) Produced over 96 h ([3]; NEM 0.1 μM + insulin 0.48 nM): 63.4 ± 8.2 ng
[Leptin] (ng/ml) at 96 h ([3]; NEM 0.1 μM + insulin 0.48 nM): 18.4 ± 2.4 ng/mL
effect on leptin production/secretion (in words) ([3]; PDH kinase inhibitors DTNB, NEM, DCA, cultured adipocytes): increase
increase of leptin production/secretion ([3]; cultured adipocytes): 25%
effect on glucose not converted to lactate or incorporated into TG (OTHER; glucose flux into oxidation), by subtraction (in words) [6, 11]: increased
effect on proportion of glucose anaerobically metabolized to lactate (in words) [6, 11]: decreased
effect on lactate production (in words) ([6]; DTNB 100 μM, NEM 0.1 μM, DCA 0.1 to 5.0 mM): without any increase
Change in Parameter: Glucose to Lactate (%) [6, 12]: −6.9 ± 2.3%
Change in Parameter: Lactate Produced (μg) over 96 h [6, 12]: -10 ± 13 µg
Glucose to Lactate (%) ([6]; NEM 0.1 μM + insulin 0.48 nM): 13.6 ± 1.5%
Lactate Produced (μg) over 96 h ([6]; NEM 0.1 μM + insulin 0.48 nM): 178 ± 11 µg

O=C(O)CC(O)C(=O)O (stereo not shown) [Malate]
increase of leptin secretion/production [3]: 20%
increase of leptin secretion/production ([3]; listed as malate): +20%

CCCCCCCC/C=C\CCCCCCCC(=O)O [oleate, oleic acid]
inhibition at 2000 µM ([8]; Rattus norvegicus, Adipocyte, oleate 2 mM, n=7): 30%
effect on glucose oxidation (in words) ([8]; oleic acid 2 mM, low glucose): inhibits
effect on leptin secretion (in words) ([3]; oleate/oleic acid 2 mM, low glucose): increased
effect on leptin secretion (in words) ([3]; oleate/oleic acid 2 mM, low glucose, listed as oleic acid): increases

C[N+](C)(C)C[C@H](O)CC(=O)[O-] [Carnitine, L-carnitine]
effect on glucose utilization (in words) ([4]; Carnitine 20 mM): inhibited
effect on glucose oxidation (in words) ([8]; L-carnitine): inhibited
increase of fatty acid oxidation ([9]; Carnitine 20 mM, n=7, percent of control): 50%
effect on fatty acid oxidation (in words) ([9]; L-carnitine): increased
effect on incorporation of labeled glucose into TG/lipid (in words) ([7]; Carnitine 20 mM): inhibited
effect on leptin secretion (in words) ([3]; Carnitine 20 mM, n=12): modestly increased
effect on proportion of glucose metabolized to lactate (in words) ([6]; Carnitine 20 mM): increased
